Source: PubChem BioAssay AID1259407 (Chemical Carcinogenesis Research Information System (CCRIS), 2018)
The source made the active and inactive calls. How the calls were made is not given here.

Tested on: CCRIS mutagenicity, Ames/micronucleus/aberration tests
Test: CCRIS mutagenicity studies
[1] = Test System: AMES SALMONELLA TYPHIMURIUM, Strain/Indicator: TA98, Metabolic Activation: NONE, Method: PREINCUBATION
[2] = Test System: AMES SALMONELLA TYPHIMURIUM, Strain/Indicator: TA98, Metabolic Activation: NONE, Method: STANDARD PLATE
[3] = Test System: AMES SALMONELLA TYPHIMURIUM, Strain/Indicator: TA98, Metabolic Activation: RAT, LIVER, S-9, AROCLOR 1254, Method: STANDARD PLATE
[4] = Test System: AMES SALMONELLA TYPHIMURIUM, Strain/Indicator: TA100, Metabolic Activation: NONE, Method: STANDARD PLATE
[5] = Test System: AMES SALMONELLA TYPHIMURIUM, Strain/Indicator: TA100, Metabolic Activation: RAT, LIVER, S-9, AROCLOR 1254, Method: STANDARD PLATE
[6] = Test System: AMES SALMONELLA TYPHIMURIUM, Strain/Indicator: TA1535, Metabolic Activation: NONE, Method: STANDARD PLATE
[7] = Test System: AMES SALMONELLA TYPHIMURIUM, Strain/Indicator: TA1537, Metabolic Activation: NONE, Method: STANDARD PLATE
[8] = Test System: AMES SALMONELLA TYPHIMURIUM, Strain/Indicator: TA1537, Metabolic Activation: RAT, LIVER, S-9, AROCLOR 1254, Method: STANDARD PLATE

## CN(C)c1ccc([C@H]2C[C@]3(C)[C@@H](CC[C@]3(O)CCCO)[C@@H]3CCC4=CC(=O)CCC4=C32)cc1
End Point: IN VITRO CHROMOSOMAL ABERRATIONS, Test System: HUMAN PERIPHERAL LYMPHOCYTES, Metabolic Activation: NONE
  mutagenic call: inactive; negative
End Point: IN VITRO CHROMOSOMAL ABERRATIONS, Test System: HUMAN PERIPHERAL LYMPHOCYTES, Metabolic Activation: RAT, LIVER, S-9, AROCLOR 1254
  mutagenic call: inactive; negative
End Point: IN VIVO MICRONUCLEUS, Test System: BONE MARROW POLYCHROMATIC ERYTHROCYTES, Species: MOUSE, Strain/Sex: NMRI/MALE, FEMALE, Route: INTRAGASTRIC
  mutagenic call: inactive; negative
[1]
  mutagenic call: inactive; negative
[2]
  mutagenic call: inactive; negative
Test System: AMES SALMONELLA TYPHIMURIUM, Strain/Indicator: TA98, Metabolic Activation: RAT, LIVER, S-9, AROCLOR 1254, Method: PREINCUBATION
  mutagenic call: inactive; negative
[3]
  mutagenic call: inactive; negative
Test System: AMES SALMONELLA TYPHIMURIUM, Strain/Indicator: TA100, Metabolic Activation: NONE, Method: PREINCUBATION
  mutagenic call: inactive; negative
[4]
  mutagenic call: inactive; negative
Test System: AMES SALMONELLA TYPHIMURIUM, Strain/Indicator: TA100, Metabolic Activation: RAT, LIVER, S-9, AROCLOR 1254, Method: PREINCUBATION
  mutagenic call: inactive; negative
[5]
  mutagenic call: inactive; negative
Test System: AMES SALMONELLA TYPHIMURIUM, Strain/Indicator: TA1535, Metabolic Activation: NONE, Method: PREINCUBATION
  mutagenic call: inactive; negative
[6]
  mutagenic call: inactive; negative
Test System: AMES SALMONELLA TYPHIMURIUM, Strain/Indicator: TA1535, Metabolic Activation: RAT, LIVER, S-9, AROCLOR 1254, Method: PREINCUBATION
  mutagenic call: inactive; negative
Test System: AMES SALMONELLA TYPHIMURIUM, Strain/Indicator: TA1535, Metabolic Activation: RAT, LIVER, S-9, AROCLOR 1254, Method: STANDARD PLATE
  mutagenic call: inactive; negative
Test System: AMES SALMONELLA TYPHIMURIUM, Strain/Indicator: TA1537, Metabolic Activation: NONE, Method: PREINCUBATION
  mutagenic call: inactive; negative
[7]
  mutagenic call: inactive; negative
Test System: AMES SALMONELLA TYPHIMURIUM, Strain/Indicator: TA1537, Metabolic Activation: RAT, LIVER, S-9, AROCLOR 1254, Method: PREINCUBATION
  mutagenic call: inactive; negative
[8]
  mutagenic call: inactive; negative
Test System: AMES SALMONELLA TYPHIMURIUM, Strain/Indicator: TA1538, Metabolic Activation: NONE, Method: PREINCUBATION
  mutagenic call: inactive; negative
Test System: AMES SALMONELLA TYPHIMURIUM, Strain/Indicator: TA1538, Metabolic Activation: NONE, Method: STANDARD PLATE
  mutagenic call: inactive; negative
Test System: AMES SALMONELLA TYPHIMURIUM, Strain/Indicator: TA1538, Metabolic Activation: RAT, LIVER, S-9, AROCLOR 1254, Method: PREINCUBATION
  mutagenic call: inactive; negative
Test System: AMES SALMONELLA TYPHIMURIUM, Strain/Indicator: TA1538, Metabolic Activation: RAT, LIVER, S-9, AROCLOR 1254, Method: STANDARD PLATE
  mutagenic call: inactive; negative
Test System: CHINESE HAMSTER V-79, Strain/Indicator: V-79 (HGPRT)/6-THIOGUANINE, Metabolic Activation: NONE
  mutagenic call: inactive; negative
Test System: CHINESE HAMSTER V-79, Strain/Indicator: V-79 (HGPRT)/6-THIOGUANINE, Metabolic Activation: RAT, LIVER, S-9, AROCLOR 1254
  mutagenic call: inactive; negative

## COc1cc(O)c2c(c1)C(=O)c1cc(C)cc(O)c1C2=O
[2]
  mutagenic call: inactive; negative
[3]
  mutagenic call: inactive; negative
[4]
  mutagenic call: inactive; negative
[5]
  mutagenic call: inactive; negative
Test System: AMES SALMONELLA TYPHIMURIUM, Strain/Indicator: TA102, Metabolic Activation: RAT, LIVER, S-9, AROCLOR 1254, Method: STANDARD PLATE
  mutagenic call: inactive; negative
[7]
  mutagenic call: inactive; negative
[8]
  mutagenic call: active; positive
Test System: AMES SALMONELLA TYPHIMURIUM, Strain/Indicator: TA1537, Metabolic Activation: S-9, Method: STANDARD PLATE
  mutagenic call: active; positive

## CC(N)=S
Test System: AMES SALMONELLA TYPHIMURIUM, Strain/Indicator: TA102, Metabolic Activation: RAT LIVER S-9, PHENOBARBITAL AND 5,6-BENZOFLAVONE, Method: STANDARD PLATE
  mutagenic call: inactive; negative
Test System: AMES SALMONELLA TYPHIMURIUM, Strain/Indicator: TA2638, Metabolic Activation: RAT LIVER S-9, PHENOBARBITAL AND 5,6-BENZOFLAVONE, Method: STANDARD PLATE
  mutagenic call: inactive; negative
Test System: E. COLI, Strain/Indicator: WP2 (PKM101), Metabolic Activation: RAT LIVER S-9, PHENOBARBITAL AND 5,6-BENZOFLAVONE, Method: STANDARD PLATE
  mutagenic call: inactive; negative
Test System: E. COLI, Strain/Indicator: WP2 UVRA (PKM101), Metabolic Activation: RAT LIVER S-9, PHENOBARBITAL AND 5,6-BENZOFLAVONE, Method: STANDARD PLATE
  mutagenic call: inactive; negative
Test System: E. COLI, Strain/Indicator: WP2 UVRA, Metabolic Activation: HAMSTER, LIVER, S-9, AROCLOR 1254, Method: STANDARD PLATE
  mutagenic call: inactive; negative
Test System: E. COLI, Strain/Indicator: WP2 UVRA, Metabolic Activation: HAMSTER, LIVER, S-9, Method: STANDARD PLATE
  mutagenic call: inactive; negative
Test System: E. COLI, Strain/Indicator: WP2 UVRA, Metabolic Activation: MOUSE, LIVER, S-9, AROCLOR 1254, Method: STANDARD PLATE
  mutagenic call: inactive; negative
Test System: E. COLI, Strain/Indicator: WP2 UVRA, Metabolic Activation: MOUSE, LIVER, S-9, Method: STANDARD PLATE
  mutagenic call: inactive; negative
Test System: E. COLI, Strain/Indicator: WP2 UVRA, Metabolic Activation: NONE, Method: STANDARD PLATE
  mutagenic call: inactive; negative
Test System: E. COLI, Strain/Indicator: WP2 UVRA, Metabolic Activation: RAT, LIVER, S-9, AROCLOR 1254, Method: STANDARD PLATE
  mutagenic call: inactive; negative
Test System: E. COLI, Strain/Indicator: WP2 UVRA, Metabolic Activation: RAT, LIVER, S-9, Method: STANDARD PLATE
  mutagenic call: inactive; negative
Test System: MOUSE LYMPHOMA, Strain/Indicator: L5178Y (TK+/TK-), Metabolic Activation: NONE, Method: SUSPENSION/PLATE
  mutagenic call: active; positive
Test System: MOUSE LYMPHOMA, Strain/Indicator: L5178Y (TK+/TK-), Metabolic Activation: RAT, LIVER, S-9, AROCLOR 1254, Method: SUSPENSION/PLATE
  mutagenic call: active; positive
Test System: MOUSE LYMPHOMA, Strain/Indicator: L5178Y (TK+/TK-), Metabolic Activation: RAT, LIVER, S-9, Method: SUSPENSION/PLATE
  mutagenic call: inactive; negative

## CN(Cc1ccc(Cl)cc1)N=O
Test System: AMES SALMONELLA TYPHIMURIUM, Strain/Indicator: TA1535, Metabolic Activation: HAMSTER, LIVER, S-9, AROCLOR 1254, Method: STANDARD PLATE
  mutagenic call: active; positive
[6]
  mutagenic call: inactive; negative

## CC(C)NO
Test System: CHINESE HAMSTER V-79, Strain/Indicator: V-79/6-THIOGUANINE, Metabolic Activation: NONE, Method: SUSPENSION
  mutagenic call: active; positive
Test System: UDS RODENT HEPATOCYTES, Strain/Indicator: THY INCORP (NON-S-PHASE), Metabolic Activation: NONE, Method: LIQUID SCINTILLATION COUNTING
  mutagenic call: inactive; negative

## CC1=C[C@H]2O[C@@H]3[C@H](O)C[C@](C)([C@@]2(CO)[C@H](O)C1=O)[C@]31CO1
End Point: IN VITRO CHROMOSOMAL ABERRATIONS, Test System: CHINESE HAMSTER V79 CELLS, Metabolic Activation: NONE
  mutagenic call: active; positive (structural changes)
[2]
  mutagenic call: inactive; negative
Test System: AMES SALMONELLA TYPHIMURIUM, Strain/Indicator: TA98, Metabolic Activation: RAT LIVER S-9, DELOR 103, Method: STANDARD PLATE
  mutagenic call: inactive; negative
[3]
  mutagenic call: inactive; negative
[4]
  mutagenic call: inactive; negative
Test System: AMES SALMONELLA TYPHIMURIUM, Strain/Indicator: TA100, Metabolic Activation: RAT LIVER S-9, DELOR 103, Method: STANDARD PLATE
  mutagenic call: inactive; negative
[5]
  mutagenic call: inactive; negative

## Nc1cccc2nc3cccc(N)c3nc12
[1]
  mutagenic call: inactive; negative
Test System: AMES SALMONELLA TYPHIMURIUM, Strain/Indicator: TA98, Metabolic Activation: RAT, LIVER, S-9, PCB, Method: PREINCUBATION
  mutagenic call: inactive; negative
